Test results reported in paper PMC11227536, “Modulation of the Meisenheimer complex metabolism of nitro-benzothiazinones by targeted C-6 substitution” (Communications Chemistry, 2024).
Values after ≈ are worked out from the molar mass of the structure shown.

What was measured:
[1] = system: Mycobacterium smegmatis (JMRC:STH:00056); test: MIC determination; type: cell-based; settings: Mycolicibacterium smegmatis; n = 1
Method: Supplementary Method 5: Biological Assays
Minimal inhibitory concentrations were determined against Mycobacterium vaccae (JMRC:STI:10670) and Mycobacterium smegmatis (JMRC:STH:00056). M. vaccae and M. smegmatis cultures were grown 48 h at 32 °C in a medium consisting of glycerol (1%), beef extract (0.5%), peptone from casein (0.5%) and sodium chloride (0.3%). Serial dilutions of the DMSO test item solutions (1 mg∙mL -1) were prepared at 100 µL scale in 96 well plates in Mueller Hinton broth starting at 200 µg∙mL -1 (highest) to cover a final concentration range of 100 to 0.05 µg∙mL -1. Each plate was equipped with a series of DMSO and ciprofloxacin dilutions as quality controls. 96 well plates were inoculated with 100 µL diluted culture (Mueller Hinton bullion) at a final concentration of 5∙10 5 and incubated at 37 °C for 42 h. Growth/no growth was visually inspected. […]

[2] = Microsomal stability assay; type: in vitro ADME, human; settings: pH 7.4; for CLint scaled at 1 µM: liver microsomes, scaled: 52.5 mg protein/g liver, 22.0 g liver/kg, human; for half-life at 1 µM: human liver microsomes, 37 °C
Method: (§1) 4. Microsomal stability assay
(§2) A microsomal stability assay was performed according to an internal standard procedure. Positive control compound diclofenac and three test items were freshly prepared as sub-dilutions in phosphate buffer (100 mM, pH 7.4) at concentrations of 200 µM and 20 µM, respectively. All incubations were conducted in triplicate in glass screw neck vials (1.5 mL, flat bottom, Macherey-Nagel, Düren, Germany) on a Thermomixer C (Eppendorf, Germany) at 37 °C and 1500 rpm. The incubation mixtures contained 270 µL human liver microsomes (HLM, 1.1 mg∙mL -1, UltraPool HLM 150, Corning B.V.
(§3) Life Science, Amsterdam, the Netherlands), 270 µL NADP regeneration mix (1 mM NADP, 5 mM glucose-6-phosphate, 5 units∙mL -1 glucose-6-phosphate dehydrogenase and 5 mM MgCl 2) and 30 µL phosphate buffer to reach a total volume of 570 µL. Negative controls were performed with heat inactivated (80 °C, 30 min) HLM solution. Reactions were initiated by addition of diclofenac or the test item solution (30 µL). Aliquots of 100 µL were taken at 1, 15, 30, 60, and 90 minutes and immediately processed with 100 µL acetonitrile at 4°C to terminate the reactions, and shaken for 2 minutes at 4°C with 1600 rpm. The mixed samples were further centrifuged for 2 minutes at 4 °C with 16.1 krcf. The supernatants were withdrawn and subjected to high resolution mass spectrometry analysis without […]
(§4) Analysis of microsomal stability assay
(§5) Samples were analyzed using a Vanquish Horizon UHPLC system (Thermo Fisher Scientific, Bremen, Germany) coupled to a Thermo Scientific QExactive HF-X Orbitrap mass spectrometer (Thermo Fisher Scientific, Bremen, Germany) using a UPLC column (ACQUITY HSS T3, Waters, 1.8 µm particle size, 2.1 × 50 mm dimensions) equipped with a pre-column (ACQUITY HSS T3 VanGuard Pre-column, Waters, 1.8 µm particle size, 2.1 × 5 mm dimensions). The column temperature was maintained at 25°C, and the samples were kept at 4°C. The UHPLC system was operated at a flow rate of 0.6 mL/min and an injection volume of 5 µL. Mobile phases consisted of 0.1% (v/v) formic acid in water (Eluent A) and 0.1% (v/v) formic acid in acetonitrile (Eluent B). Chromatographic separation was obtained as follows:
(§6) 0 to 4 min: a linear from 5 to 98% of Eluent B; 4 to 6.5 min: isocratic at 98% B; 6.5 to 7 min: linear from 98 to 5% B; 7 to 9 min: isocratic at 5% B. The high-resolution mass spectra were acquired with electrospray ionization at both positive and negative modes. A scan range of m/z 120 to 1800 was chosen, and the maximum injection time was set to 200 ms. Ion source parameters were: spray voltage 3.5 kV, capillary temperature 320°C, RF level 40, sheath gas pressure 50 (N 2 > 95%), auxiliary gas 10 (N2 > 95%), auxiliary gas heater temperature 300°C. The value for the automatic gain control (AGC) target was set to 10 6, resolution was 60000, and chromatographic peak width (FWHM) was 15 s.
(§7) Calculation of the results from microsomal stability assay
(§8) Elimination rate constant (k) = (- gradient)
(§9) Half-life (t ) (min) = ௟௡
(§10) V (µL∙mg -1) = ௩௢௟௨௠௘ ௢௙ ௜௡௖௨௕௔௧௜௢௡ (µ௅) […]
(§11) Intrinsic clearance in liver microsomes (Cl ) (µL∙min∙mL -1protein) = ௏ × ௟௡ଶ […]
(§12) Intrinsic clearance (Cl ) (mL∙min -1∙kg -1) = ௟௡ × ௏ × ௠௚ ௠௜௖௥௢௦௢௠௔௟ ௣௥௢௧௘௜௡ × ௚ ௟௜௩௘௥ int ௧భ/మ ଵ଴଴଴ ௚ ௟௜௩௘௥ ௪௘௜௚௛௧ ௞௚ ௕௢ௗ௬ ௪௘௜௚௛௧
(§13) (52.5 mg protein∙ g -1 liver used for human; 22.0 g∙ kg -1 liver to body weight used for human) Hepatic extraction ratio (E ) = ୤౫ × େ୪౟౤౪
(§14) (fu: fraction of drug unbound in plasma, f u = 1 used for the calculation; Q: hepatic blood flow, 20.0 mL∙min-1∙kg -1 for human).

human liver microsomes = test: Microsomal stability assay; type: in vitro ADME; settings: for Eh (hepatic extraction ratio): fu = 1, Q = 20.0 mL∙min-1∙kg-1, human; for Clint,micro: human liver microsomes
Method: as §1, §2, §3, §4, §5, §6, §7, §8, §9, §10, §11, §12, §13, §14

| SMILES | MIC [1] [µM] | CLint scaled at 1 µM [2] [mL/min/kg] | half-life at 1 µM [2] [h] | Eh (hepatic extraction ratio) (human liver microsomes) [%] | Clint,micro (human liver microsomes) [µl.min-1-mg-1 protein] |
| --- | --- | --- | --- | --- | --- |
| C[C@H]1COC2(CCN(c3nc(=O)c4cc(I)cc([N+](=O)[O-])c4s3)CC2)O1 [Compound 10] | 0.1 (≈ 0.0489 µg/mL) | 19.1 | 1.41 | 48.8 | 16.1 |
| CON(C)C(=O)c1cc([N+](=O)[O-])c2sc(N3CCC4(CC3)OC[C@H](C)O4)nc(=O)c2c1 [Compound 7f] | 111 (≈ 50 µg/mL) | 11 | 2.46 | 35.5 | 9.5 |
| C[C@H]1COC2(CCN(c3nc(=O)c4cc(Br)cc([N+](=O)[O-])c4s3)CC2)O1 [Compound 11] | 0.057 (≈ 0.0252 µg/mL) | 18.4 | 1.46 | 47.9 | 16 |
| CC(C)OC(=O)c1cc([N+](=O)[O-])c2sc(N3CCC4(CC3)OC[C@H](C)O4)nc(=O)c2c1 [Compound 6c] | 6.94 (≈ 3.12 µg/mL) | 61.1 | 0.441 | 75.3 | 52.9 |
| C[C@H]1COC2(CCN(c3nc(=O)c4cc(C(=O)N(C)C)cc([N+](=O)[O-])c4s3)CC2)O1 [Compound 7c] | 230 (≈ 100 µg/mL) | 3 | 8.89 | 13 | 2.6 |
| C[C@H]1COC2(CCN(c3nc(=O)c4cc(C(=O)O)cc([N+](=O)[O-])c4s3)CC2)O1 [Compound 8] | 15.3 (≈ 6.23 µg/mL) | – | – | – | – |
| COC(=O)c1cc([N+](=O)[O-])c2sc(N3CCC4(CC3)OC[C@H](C)O4)nc(=O)c2c1 [Compound 6a] | 3.7 (≈ 1.56 µg/mL) | 363 | 0.0742 | 94.8 | 314.7 |
| C[C@H]1COC2(CCN(c3nc(=O)c4cc(C#N)cc([N+](=O)[O-])c4s3)CC2)O1 [Compound 9] | 0.13 (≈ 0.0505 µg/mL) | 15.4 | 1.75 | 43.5 | 13.3 |
| C[C@H]1COC2(CCN(c3nc(=O)c4cccc([N+](=O)[O-])c4s3)CC2)O1 [Compound 23] | 8.59 (≈ 3.12 µg/mL) | 5.8 | 4.62 | 22.5 | 5.1 |
